{"source": "patent US20160199298A1", "about": "“FOSFESTROL FOR USE IN CURATIVE OR PALLIATIVE TREATMENT OF CANCER IN FEMALE MAMMALS” (CHAMAELEO PHARMA BVBA, priority 2012, published 2016)", "key": {"MCF7 Cells": {"test_system": "MCF7 Cells", "assay": "in vitro direct cytotoxicity, Cell titer blue viability assay", "assay_type": "cell-based", "settings": "MCF7 cells (hormone-sensitive), 72 hrs incubation, 1% FBS assay media", "experimental": "(§1) Cells were maintained in vitro in RPMI 1640 containing 10% (v/v) heat inactivated fetal bovine serum (FBS) and 2 mM L-glutamine (growth media) at 37° C. in 5% CO2 and humidified conditions. Cells were harvested, washed, re-suspended into growth medium and counted. The cells were re-suspended into assay media (RPMI 1640+1% (v/v) heat inactivated FBS+ and 2 mM L-glutamine) at 0.5-1×10^5 cells/ml (dependent on cell type), and plated into 96-well assay plates (Corning, black-wall plates) and 50 μl/well aliquots.\n(§2) Plates were incubated O/N at 37° C. in 5% humidified CO2 prior to addition of the compounds. […] Fosfestrol was dissolved in sterile water at stock concentration of 60 mM.\n(§3) Stocks of all compounds were then serially diluted and final concentration to which cells were exposed were: 300, 150, 75, 37.5, 18.75, 9.4, 4.7, 2.3, 1.2 and 0.6 μM. Positive control was Cisplatin. Cisplatin was diluted in 1% FBS medium to give a stock concentration of 1 mM. Cisplatin stock was serial diluted and final concentration to which cells were exposed was: 100, 50, 25, 12.5, 6.3, […], 1.6, 0.8, 0.4, 0.2 μM.\n(§4) Plates were incubated for 72 hrs at 37° C. in 5% humidified CO-2 after addition of the compounds. Viability of the cells was assessed with the Cell titer blue® (Promega) assay. […] Fluorescence was measured with a Flex II station plate reader. […]"}, "MDA-MB-231 Cells": {"test_system": "MDA-MB-231 Cells", "assay": "in vitro direct cytotoxicity, Cell titer blue viability assay", "assay_type": "cell-based", "settings": "MDA-MB-231 cells (hormone-insensitive), 72 hrs incubation, 1% FBS assay media", "experimental": "as §1, §2, §3, §4"}, "MCF-7 cells": {"test_system": "MCF-7 cells", "settings": "4 days, 5 μM (2 μg/ml); cited from earlier work"}, "[1]": {"settings": "prostate cancer patients, 5 mg p.o. per day; cited from earlier work"}, "[2]": {"test_system": "postmenopausal women with metastatic breast cancer", "settings": "women initially treated; cited from earlier work"}, "[3]": {"test_system": "hormone independent mammary carcinomas", "settings": "very high doses in vivo; cited from earlier work"}, "[4]": {"test_system": "postmenopausal breast cancer patients heavily exposed to endocrine therapy", "settings": "15 mg daily p.o., cited from earlier work"}}, "data": [{"molecule": "N.N.[Cl][Pt][Cl]", "note": "[Cisplatin]", "values": [{"measurement": "IC50", "setting": "MCF7 Cells", "value": 2.8, "unit": "µM"}, {"measurement": "IC50", "setting": "MDA-MB-231 Cells", "value": 13, "unit": "µM"}]}, {"molecule": "CC/C(=C(/CC)c1ccc(OP(=O)(O)O)cc1)c1ccc(O)cc1", "note": "[DES monophosphate]", "values": [{"measurement": "reduction in cell growth", "setting": "MCF-7 cells", "value": "no effect at all"}]}, {"molecule": "CC/C(=C(/CC)c1ccc(O)cc1)c1ccc(O)cc1", "note": "[DES, diethylstilbestrol]", "values": [{"measurement": "increase in non-cancer related deaths, mostly cardiovascular", "setting": "[1]", "value": 36, "unit": "%"}, {"measurement": "5-year survival", "setting": "[2]", "value": 35, "unit": "%"}, {"measurement": "median survival", "setting": "[2]", "value": 3.0, "unit": "years"}, {"measurement": "effect on hormone independent mammary carcinomas", "setting": "[3]", "value": "no effect"}, {"measurement": "efficacy in highly pretreated patients", "setting": "[4]", "value": "effective"}, {"measurement": "patients who stopped therapy because of side effects", "setting": "[4]; six patients", "value": 19, "unit": "%"}, {"measurement": "reduction in cell growth", "setting": "MCF-7 cells", "value": "no effect at all"}]}, {"molecule": "CC/C(=C(\\c1ccccc1)c1ccc(OCCN(C)C)cc1)c1ccccc1", "note": "[tamoxifen]", "values": [{"measurement": "5-year survival", "setting": "[2]", "value": 16, "unit": "%"}, {"measurement": "median survival", "setting": "[2]", "value": 2.4, "unit": "years"}]}]}
